Test results taken from patent US20200360341A1, “INDOMETHACIN MENTHYL ESTER-BASED PHARMACEUTICAL COMPOSITIONS AND THEIR USE AS ANTI-INFLAMMATORY AGENTS” (OBSHESTVO S OGRANICHENNOI OTVETSTVENNOSTJU "FORBOS”, priority 2017, published 2020).

Key:
[1] = Pharmacokinetics: indomethacin in blood plasma after oral administration; format: in vivo, rats (Sprague Dawley); conditions: 25 mg/kg
Description: Pharmacokinetic properties of two MEI-based compositions were studied: composition 1 (liposome-encapsulated MEI), produced as described in example 1, and composition 3 (MEI solution), produced as described in example 3. MEI substance (as a suspension in starch solution) and indomethacin were used as reference drugs. Rats of Sprague Dawley stock were used. All test compounds were administered orally to rats in 25 mg/kg dose. Animal blood was sampled at certain time points (0; 0.25; 0.5; 1, 2, 4, 8, 16 and 24 hours) for analysis. Indomethacin content in animal blood plasma was determined using high-performance liquid chromatography (HPLC) method.

serotonin-induced edema = experiment: Serotonin-induced paw edema (acute inflammation); format: in vivo, rats (Sprague Dawley); conditions: oral; for Inflammation inhibition index: 2 h before serotonin, 30 min after serotonin, n = 8
Description: Anti-inflammatory activity of MEI-based pharmaceutical compositions compared to MEI substance (as a suspension in starch solution) and indomethacin after oral administration was studied in a model of acute inflammation-paw edema induced by inflammation mediator serotonin. Rats of Sprague Dawley stock were used. […] Test compounds were administered orally 2 hours before the serotonin administration. […] Inflammation severity was measured by plethyosmography as the difference between the masses of control and test paws, expressed in ml. Anti-inflammatory activity of the test compounds was assessed by the inhibition index, calculated using the following formula: II=(([…])×100%, where II-inflammation inhibition index in %; Set-severity of inflammation in the control group, ml; St-severity of inflammation in the test group, ml.

[2] = system: adjuvant-induced rheumatoid arthritis; experiment: Adjuvant-induced rheumatoid arthritis, inflammation severity by plethysmography; format: in vivo
Description: (§1) Anti-inflammatory and analgesic activity of MEI-based pharmaceutical composition after oral administration was studied in a model of chronic inflammation—adjuvant-induced rheumatoid arthritis in rats. To induce arthritis the rats were administered 100 mcl of complete Freund adjuvant (CFA), supplied by Sigma Aldrich, into the plantar surface of right hind paw. The control (intact) group 1 has received 100 mcl of saline. After CFA injection, local inflammation develops in a few hours, with subsequent pathologic changes in metacarpophalangeal joints and distal interphalangeal joints. Test compound (composition 3—MEI solution) and the reference drug (indomethacin) were administered once daily orally for 22 days, starting from 7th day after pathology induction. Test compound was administered in 6.25, 12.5 and 25 mg/kg doses. […] To assess the anti-inflammatory action of MEI in animals by pelthysmography, inflammation severity was measured as the difference between the masses of control and test paws, expressed in ml. Analgesic activity of MEI in animals was assessed by tactile reactivity threshold using the method of Chaplan et al. using the kit of 8 standard von Frey hairs (Stoelting, USA).

[3] = system: adjuvant-induced rheumatoid arthritis; experiment: Adjuvant-induced rheumatoid arthritis, tactile reactivity threshold (von Frey hairs); format: in vivo, rats
Description: as §1

yeast-induced fever = experiment: Yeast-induced fever (antipyretic activity); format: in vivo, rats (Sprague Dawley); conditions: n = 6
Description: Antipyretic activity of MEI-based pharmaceutical composition was studied in a model of yeast-induced fever in rats. Rats of Sprague Dawley stock were used. Fever was induced in rats by subcutaneous administration of baker's yeast suspension in 2000 mg/kg dose (calculated for dry yeast basis) in 2 ml volume into the animal withers 18 hours before test compound administration. Animal body temperature was measured using an electronic rectal thermometer (MLT1403 Rectal Temperature Probe and PowerLab 4/35 4-channel registration system module, ADlnstruments PtyLtd, Australia). Temperature was measured before yeast administration and 18 h after yeast administration. Afterwards the animals were administered the test compound, MEI-based pharmaceutical composition (composition 3—MEI solution, produced as described in Example 3) in 25, 50 and 100 mg/kg doses. Indomethacin in 10 mg/kg dose was used as a reference drug. Animals in control group have received the vehicle. Temperature was measured 2 and 4 hours after test compound administration.

gastric mucosa = experiment: Ulcerogenic action on gastric mucosa after fourfold oral administration; format: in vivo, rats; conditions: for Average score (ulcerogenic action) / Average number of erosions / Average number of ulcers: 4 times orally; for Average score (ulcerogenic action): scale 0 (no damage) to 4 (gross damage); for Average number of erosions / Average number of ulcers: stomach 3 h after last administration
Description: Ulcerogenic action was measured using the following 4-point scale: 0—no damage; 0.5—slight hyperemia of gastric mucosa; 1—weak localized damage of gastric mucosa (single point bleeding, severe hyperemia); 2—weak distributed damage of gastric mucosa (small ulcers, erosions, multiple bleeding); 3—severe and distributed damage of gastric mucosa (erosions, ulcers, bleeding); 4—gross damage of the whole stomach (massive bleeding, erosion, ulcers, perforation).

[4] = rats, oral administration; cited from earlier work
[5] = system: carrageenan-induced edema; experiment: Carrageenan-induced edema, intraperitoneal administration; format: in vivo, rats (Sprague Dawley); conditions: after 4 h
Description: Anti-inflammatory activity of MEI-based pharmaceutical composition after parenteral administration was studied in a model of carrageenan-induced edema. Rats of Sprague Dawley stock were used. 50 mcl of saline (“sodium chloride 0.9% solution for infusion”, NPK ESCOM, Russia) was injected intraplantarly into one hind paw (control paw), while 50 mcl of 1% λ-carrageenan solution was injected into another paw.
Inflammation severity was measured after 4 h using a plethysmometer (IITC Life Science, USA). Inflammation severity was measured by plethyosmography as the difference between the masses of control and test paws, expressed in ml. Test compound, pharmaceutical composition […] (MEI solution) was administered parenterally (intraperitoneally) 1 hour before λ-carrageenan administration, animals receiving the same amount of the vehicle were used as control. The animals were deprived of food 24 h before the study, water access was not limited.

[6] = 1 mg/kg oral once daily from day 7, day 21
[7] = 1 mg/kg oral once daily from day 7, day 28
[8] = 1 mg/kg oral once daily, day 7 (before test compound administration)
[9] = composition 3 (MEI solution) 6.25 mg/kg oral once daily from day 7, day 21
[10] = composition 3 (MEI solution) 6.25 mg/kg oral once daily from day 7, day 28
[11] = composition 3 (MEI solution) 6.25 mg/kg oral once daily, day 7 (before test compound administration)
[12] = composition 3 (MEI solution) 12.5 mg/kg oral once daily from day 7, day 21
[13] = composition 3 (MEI solution) 12.5 mg/kg oral once daily from day 7, day 28
[14] = composition 3 (MEI solution) 12.5 mg/kg oral once daily, day 7 (before test compound administration)
[15] = composition 3 (MEI solution) 25 mg/kg oral once daily from day 7, day 21
[16] = composition 3 (MEI solution) 25 mg/kg oral once daily from day 7, day 28
[17] = composition 3 (MEI solution) 25 mg/kg oral once daily, day 7 (before test compound administration)
[18] = composition 3 (MEI solution) 25 mg/kg oral
[19] = composition 3 (MEI solution) 50 mg/kg oral
[20] = composition 3 (MEI solution) 100 mg/kg oral
[21] = MEI-based composition 100 mg/kg

SMILES: COc1ccc2c(c1)c(CC(=O)O)c(C)n2C(=O)c1ccc(Cl)cc1 [Indomethacin, 1-(4-chlorobenzoyl)-5-methoxy-2-methyl-1H-indole-3-acetic acid]
- Tmax ([1]; Sprague-Dawley, rat blood plasma, read-out: time of reaching the maximal concentration (Tmax) of indomethacin): 4 h
- Cmax ([1]; Sprague-Dawley, rat, plasma, indomethacin measured by HPLC, read-out: maximal concentration of indomethacin in rat blood plasma (Cmax)): 65.5 µg/mL
- Inflammation inhibition index (serotonin-induced edema; 10 mg/kg): 43.5%
- inflammation severity ([2]; 1 mg/kg oral once daily from day 7, day 14): 1.8 ± 0.24 mL
- inflammation severity [2, 6]: 1.5 ± 0.18 mL
- inflammation severity [2, 7]: 1.4 ± 0.28 mL
- inflammation severity [2, 8]: 3.0 ± 0.59 mL
- animal mortality ([2]; 5 mg/kg, oral once daily, arthritis model): animal mortality is observed
- median-effective tactile reactivity threshold in an injected limb [3, 6]: 14.5 ± 3.18 g
- median-effective tactile reactivity threshold in an injected limb [3, 7]: 16.0 ± 3.04 g
- median-effective tactile reactivity threshold in an injected limb [3, 8]: 9.9 ± 2.34 g
- Average body temperature 2 h after test compound administration (yeast-induced fever; 10 mg/kg): −0.98 °C
- Average body temperature 4 h after test compound administration (yeast-induced fever; 10 mg/kg): −0.85 °C
- Average score (ulcerogenic action) (gastric mucosa; 5 mg/kg): 3
- Average number of erosions (gastric mucosa; 5 mg/kg): 3.2
- Average number of ulcers (gastric mucosa; 5 mg/kg): 8
- gastric mucosa findings (gastric mucosa; four 5 mg/kg doses, oral): multiple ulcers and erosions
- LD50 [4]: less than 15 mg/kg

SMILES: COc1ccc2c(c1)c(CC(=O)OC1CC(C)CCC1C(C)C)c(C)n2C(=O)c1ccc(Cl)cc1 (stereo not shown) [MEI]
- indomethacin concentration in blood plasma ([1]; suspension in starch solution, any time point 0-24 h): below the detection limit
- anti-inflammatory effect in model of acute inflammation (serotonin-induced edema; 25 mg/kg): doesn't have significant anti-inflammatory effects
- Inflammation inhibition index (serotonin-induced edema; 25 mg/kg active agent): 4.3%
- inflammation severity ([2]; composition 3 (MEI solution) 6.25 mg/kg oral once daily from day 7, day 14): 2.5 ± 0.76 mL
- inflammation severity [2, 9]: 1.8 ± 0.49 mL
- inflammation severity [2, 10]: 1.9 ± 0.51 mL
- inflammation severity [2, 11]: 2.8 ± 0.54 mL
- inflammation severity ([2]; composition 3 (MEI solution) 12.5 mg/kg oral once daily from day 7, day 14): 1.9 ± 0.37 mL
- inflammation severity [2, 12]: 2.0 ± 0.40 mL
- inflammation severity [2, 13]: 1.1 ± 0.21 mL
- inflammation severity [2, 14]: 2.6 ± 0.38 mL
- inflammation severity ([2]; composition 3 (MEI solution) 25 mg/kg oral once daily from day 7, day 14): 1.5 ± 0.22 mL
- inflammation severity [2, 15]: 0.9 ± 0.07 mL
- inflammation severity [2, 16]: 0.8 ± 0.12 mL
- inflammation severity [2, 17]: 2.4 ± 0.43 mL
- median-effective tactile reactivity threshold in an injected limb [3, 9]: 10.4 ± 3.09 g
- median-effective tactile reactivity threshold in an injected limb [3, 10]: 9.6 ± 2.67 g
- median-effective tactile reactivity threshold in an injected limb [3, 11]: 11.7 ± 2.93 g
- median-effective tactile reactivity threshold in an injected limb [3, 12]: 13.3 ± 2.55 g
- median-effective tactile reactivity threshold in an injected limb [3, 13]: 14.8 ± 2.35 g
- median-effective tactile reactivity threshold in an injected limb [3, 14]: 11.8 ± 3.12 g
- median-effective tactile reactivity threshold in an injected limb [3, 15]: 16.6 ± 2.64 g
- median-effective tactile reactivity threshold in an injected limb [3, 16]: 18.2 ± 2.57 g
- median-effective tactile reactivity threshold in an injected limb [3, 17]: 9.8 ± 2.14 g
- Edema size ([5]; composition No 4 (MEI solution) 0.1 mg/kg intraperitoneally 1 h before carrageenan): 1.011 ± 0.115 mL
- Edema size, % from control ([5]; composition No 4 (MEI solution) 0.1 mg/kg intraperitoneally): 91.2 % from control
- Edema size ([5]; composition No 4 (MEI solution) 0.5 mg/kg intraperitoneally 1 h before carrageenan): 0.675 ± 0.065 mL
- Edema size, % from control ([5]; composition No 4 (MEI solution) 0.5 mg/kg intraperitoneally): 60.9 % from control
- Edema size ([5]; composition No 4 (MEI solution) 1.0 mg/kg intraperitoneally 1 h before carrageenan): 0.552 ± 0.097 mL
- Edema size, % from control ([5]; composition No 4 (MEI solution) 1.0 mg/kg intraperitoneally): 45.0 % from control
- Edema size ([5]; composition No 4 (MEI solution) 10 mg/kg intraperitoneally 1 h before carrageenan): 0.201 ± 0.176 mL
- Edema size, % from control ([5]; composition No 4 (MEI solution) 10 mg/kg intraperitoneally): 18.1 % from control
- Edema size ([5]; composition No 4 (MEI solution) 50 mg/kg intraperitoneally 1 h before carrageenan): 0.288 ± 0.152 mL
- Edema size, % from control ([5]; composition No 4 (MEI solution) 50 mg/kg intraperitoneally): 26.0 % from control
- Average body temperature 2 h after test compound administration (yeast-induced fever; [18]): −0.53 °C
- Average body temperature 4 h after test compound administration (yeast-induced fever; [18]): −0.45 °C
- Average body temperature 2 h after test compound administration (yeast-induced fever; [19]): −0.93 °C
- Average body temperature 4 h after test compound administration (yeast-induced fever; [19]): −0.82 °C
- Average body temperature 2 h after test compound administration (yeast-induced fever; [20]): −0.78 °C
- Average body temperature 4 h after test compound administration (yeast-induced fever; [20]): −0.68 °C
- Average score (ulcerogenic action) (gastric mucosa; MEI-based composition 25 mg/kg): 0
- Average number of erosions (gastric mucosa; MEI-based composition 25 mg/kg): 0
- Average number of ulcers (gastric mucosa; MEI-based composition 25 mg/kg): 0
- Average score (ulcerogenic action) (gastric mucosa; MEI-based composition 50 mg/kg): 0
- Average number of erosions (gastric mucosa; MEI-based composition 50 mg/kg): 0
- Average number of ulcers (gastric mucosa; MEI-based composition 50 mg/kg): 0
- Average score (ulcerogenic action) (gastric mucosa; [21]): 0.4
- Average number of erosions (gastric mucosa; [21]): 0
- Average number of ulcers (gastric mucosa; [21]): 0.8
